ChEMBL document CHEMBL3832551, “DailyMed|setid=dd39c559-5c5d-4d3b-9228-c44085e1699f | FELODIPINE - felodipine tablet, film coated, extended release|Aurobindo Pharma Limited”

Tests used:
Format in all cases: ADME, organism-based
[1] = (§1) Evaluation of pharmacokinetic parameters for Felodipine following single oral administration of Felodipine immediate or extended-release tablets; parameters: dose 10 mg, dose 20 mg, route oral; conditions: human, in vivo; dosed compound id 10, dosed compound name FELODIPINE, regimen Single dose, route oral, tissue Plasma
Homo sapiens [2] = experiment: as §1; parameters: dose 10 mg, dose 20 mg, route oral; conditions: in vivo, po, dosed compound id 10, dosed compound name FELODIPINE, regimen Single dose, tissue Plasma
[3] = (§2) Evaluation of pharmacokinetic parameters for Felodipine following multiple oral administration of Felodipine immediate-release tablets; parameters: dose 10 mg, route oral; conditions: human, in vivo, 10 mg, dosed compound id 10, dosed compound name FELODIPINE, gender male and female, regimen Once daily, tissue Plasma
Homo sapiens [4] = experiment: as §2; parameters: dose 10 mg, route oral; conditions: in vivo, dose 10 mg, dosed compound id 10, dosed compound name FELODIPINE, gender male and female, regimen Once daily, route oral, tissue Plasma

Q: With `CCOC(=O)C1=C(C)NC(C)=C(C(=O)OC)C1c1cccc(Cl)c1Cl` (stereo not drawn) [FELODIPINE] as the molecule, how does the Tmax [1] read?
A: The Tmax was 2.5 to 5 h.

Q: What about the bioavailability [1] of the same molecule?
A: Its bioavailability is 5%.

Q: What about the Cmin ss (Homo sapiens [2]; dose 10 mg, gender young male and female) of the same molecule?
A: Its Cmin ss is 2 nM.

Q: What about the Cmin ss (Homo sapiens [2]; dose 20 mg, gender male and female) of the same molecule?
A: Its Cmin ss is 7 nM.

Q: And the Cmax (Homo sapiens [2]; gender male and female)?
A: Its Cmax is 23 nM.

Q: What about the Cmax (Homo sapiens [2]; gender young male and female) of the same molecule?
A: Its Cmax is 7 nM.

Q: And the Cmax [3]?
A: The Cmax was 20 nM.

Q: What about the Cmin ss (Homo sapiens [4]) of the same molecule?
A: Its Cmin ss is 0.5 nM.
